Like-named read-outs stand apart in the source and are kept apart here. Each block holds one molecule with its values, some of them ahead of it.
Experiments:
Type in all cases: cell-based
[1] = test system: MCF-7 (estrogen receptor positive breast cancer cells); experiment: Anti-proliferation assay (MTS/PMS, 72 h), MCF-7
Description: (§1) Cells were maintained in a 1:1 mixture of Advanced DMEM/F12 (Gibco) supplemented with non-essential amino acids, L-glutamine (2 mM), streptomycin (500 μg/mL), penicillin (100 units/mL), and 10% FBS. Cells were grown to confluence in a humidified atmosphere (37° C., 5% CO2), seeded (2000/well, 100 μL) in 96-well plates, and allowed to attach overnight. Compound at varying concentrations in DMSO (1% DMSO final concentration) was added, and cells were returned to the incubator for 72 h. At 72 h, the number of viable cells was determined using an MTS/PMS cell proliferation kit (Promega) per the manufacturer's instructions. Cells incubated in 1% DMSO were used at 100% proliferation, and values were adjusted accordingly. IC50 values were calculated from separate experiments performed in triplicate using GraphPad Prism.
(§2) The anti-proliferative activity of these compounds is evaluated against two breast cancer cell lines, SKBr3 (estrogen receptor negative, Her2 over-expressing breast cancer cells) and MCF-7 (estrogen receptor positive breast cancer cells).

[2] = test system: SKBr3 (estrogen receptor negative, Her2 over-expressing breast cancer cells); experiment: Anti-proliferation assay (MTS/PMS, 72 h), SKBr3
Description: as §1, §2

[3] = test system: MRC5; experiment: Anti-proliferation assay, MRC5 (normal); conditions: Table 9, non-aryl ureas
Description: as §1

[4] = test system: HMLE; experiment: Anti-proliferation assay, HMLE (normal); conditions: Table 9, non-aryl ureas
Description: as §1

[5] = test system: JMAR; experiment: Anti-proliferation assay, JMAR; conditions: Table 9, non-aryl ureas; HSNCC
Description: as §1

[6] = test system: PC-3; experiment: Anti-proliferation assay, PC-3; conditions: Table 9, non-aryl ureas; Prostate Cancer
Description: as §1

[7] = test system: DRO81-1; experiment: Anti-proliferation assay, DRO81-1; conditions: Table 9, non-aryl ureas; Thyroid
Description: as §1

[8] = test system: HCT-116; experiment: Anti-proliferation assay, HCT-116; conditions: Table 9, non-aryl ureas
Description: as §1

[9] = test system: A-549; experiment: Anti-proliferation assay, A-549; conditions: Table 9, non-aryl ureas
Description: as §1

[10] = test system: MDA1986; experiment: Anti-proliferation assay, MDA1986; conditions: Table 9, non-aryl ureas; HSNCC
Description: as §1

[11] = test system: MDAMB231; experiment: Anti-proliferation assay, MDAMB231; conditions: Table 9, non-aryl ureas; Tri-Neg
Description: as §1

[12] = Homo sapiens, MCF7, Table 8, biphenyl ureas, Breast Cancer, read-out: IC50 MCF-3
[13] = Homo sapiens, SK-BR-3, Table 8, biphenyl ureas, Breast Cancer, read-out: IC50 SKBr3
[14] = Table 3, cycloamine analogues, read-out: MCF-7
[15] = Table 3, cycloamine analogues, read-out: SKBr3

SMILES: COc1ccc(NC(=O)Nc2cc3ccc(OC4CCN(C)CC4)c(C)c3oc2=O)cc1-c1ccccc1 [OMe, H, 1-(6-methoxy-[1,1′-biphenyl]-3-yl)-3-(8-methyl-7-((1-methylpiperidin-4-yl)oxy)-2-oxo-2H-chromen-3-yl)urea]
IC50 [1, 12]: 930 nM
IC50 [2, 13]: 450 nM

SMILES: CC(C)=CCc1cc(C(=O)Nc2cc3ccc(OCC4CCN(C)C4)c(C)c3oc2=O)ccc1O (stereo not shown)
IC50 [1, 14]: 1550 ± 40 nM
IC50 [2, 15]: 920 ± 560 nM

SMILES: Cc1c(OC2CCN(C)CC2)ccc2cc(NC(=O)N3CCN(C)CC3)c(=O)oc12 [drawing 171]
IC50 [3]: > 25000 nM
IC50 [4]: > 25000 nM

SMILES: CC(C)=CCc1cc(C(=O)Nc2cc3ccc(OCC4CCCNC4)c(C)c3oc2=O)ccc1O (stereo not shown)
IC50 [1, 14]: 790 ± 100 nM
IC50 [2, 15]: 600 ± 10 nM

SMILES: Cc1c(OC2CCN(C)CC2)ccc2cc(NC(=O)NC3CCCCC3)c(=O)oc12 [drawing 168]
IC50 [3]: > 25000 nM
IC50 [4]: > 25000 nM

SMILES: CC(C)=CCc1cc(C(=O)Nc2cc3ccc(OCCC4CCCCN4)c(C)c3oc2=O)ccc1O (stereo not shown)
IC50 [1, 14]: 710 ± 30 nM
IC50 [2, 15]: 640 ± 60 nM

SMILES: Cc1c(OC2CCN(C)CC2)ccc2cc(NC(=O)NC(c3ccccc3)c3ccccc3)c(=O)oc12 [drawing 175]
IC50 [3]: 15500 nM
IC50 [4]: 1600 nM

SMILES: COc1cccc(-c2cccc(NC(=O)Nc3cc4ccc(OC5CCN(C)CC5)c(C)c4oc3=O)c2)c1 [H, OMe, 1-(3′-methoxy-[1,1′-biphenyl]-3-yl)-3-(8-methyl-7-((1-methylpiperidin-4-yl)oxy)-2-oxo-2H-chromen-3-yl)urea]
IC50 [1, 12]: 370 nM
IC50 [2, 13]: 440 nM

SMILES: CC(C)=CCc1cc(C(=O)Nc2cc3ccc(OCCCN4CCCCC4)c(C)c3oc2=O)ccc1O [drawing 146]
IC50 [1, 14]: > 50000 nM
IC50 [2, 15]: > 50000 nM

SMILES: CC(C)=CCc1cc(C(=O)Nc2cc3ccc(OCCCN4CCNCC4)c(C)c3oc2=O)ccc1O
IC50 [1, 14]: 930 ± 210 nM
IC50 [2, 15]: 820 ± 20 nM

SMILES: Cc1c(OC2CCN(C)CC2)ccc2cc(NC(=O)NC34CC5CC(CC(C5)C3)C4)c(=O)oc12 [drawing 156]
IC50 [5]: 6200 nM
IC50 [6]: 19 ± 3 nM
IC50 [7]: 18700 nM
IC50 [8]: 82 ± 35 nM
IC50 [9]: 10 ± 10 nM
IC50 [10]: 5900 nM
IC50 [11]: 3000 nM

SMILES: Cc1c(OC2CCN(C)CC2)ccc2cc(NC(=O)N(C)Cc3ccccc3)c(=O)oc12 [drawing 173]
IC50 [3]: > 25000 nM
IC50 [4]: > 25000 nM

Further lines, results first:

IC50 ([1]; Homo sapiens, MCF7, Table 4, alkylamino analogues, read-out: MCF-7): 2190 ± 500 nM
IC50 ([2]; Homo sapiens, SK-BR-3, Table 4, alkylamino analogues, read-out: SKBr3): 730 ± 60 nM
SMILES: CCN(C)CCCOc1ccc2cc(NC(=O)c3ccc(O)c(CC=C(C)C)c3)c(=O)oc2c1C [Compound 68b, N-(7-(3-(ethyl(methyl)amino)propoxy)-8-methyl-2-oxo-2H-chromen-3-yl)-4-hydroxy-3-(3-methylbut-2-en-1-yl)benzamide]

IC50 ([1]; Homo sapiens, MCF7, Table 5, alkylether derivatives with cyclic N-substitutions, read-out: MCF-7): 1030 ± 120 nM
IC50 ([2]; Homo sapiens, SK-BR-3, Table 5, alkylether derivatives with cyclic N-substitutions, read-out: SKBr3): 770 ± 130 nM
SMILES: CC(C)=CCc1cc(C(=O)Nc2cc3ccc(OCCCNC4C[C@H]5CC[C@@H]4C5)c(C)c3oc2=O)ccc1O (stereo partly drawn) [Compound 70i, N-(7-(3-((1R,4S)-bicyclo[2.2.1]heptan-2-ylamino)propoxy)-8-methyl-2-oxo-2H-chromen-3-yl)-4-hydroxy-3-(3-methylbut-2-en-1-yl)benzamide]

IC50 ([1]; Table 5, alkylether derivatives with cyclic N-substitutions, read-out: MCF-7): 1080 ± 70 nM
IC50 ([2]; Table 5, alkylether derivatives with cyclic N-substitutions, read-out: SKBr3): 970 ± 30 nM
SMILES: CC(C)=CCc1cc(C(=O)Nc2cc3ccc(OCCCN(C)C4CCCCC4)c(C)c3oc2=O)ccc1O [Compound 70b]

IC50 [1, 12]: 210 nM
IC50 [2, 13]: 250 nM
SMILES: COc1cccc(-c2cc(NC(=O)Nc3cc4ccc(OC5CCN(C)CC5)c(C)c4oc3=O)ccc2C)c1 [CH3, OMe, 1-(3′-methoxy-6-methyl-[1,1′-biphenyl]-3-yl)-3-(8-methyl-7-((1-methylpiperidin-4-yl)oxy)-2-oxo-2H-chromen-3-yl)urea]

Reference: patent publication US10030006B2, “Coumarin based Hsp90 inhibitors with urea and ether substituents” (University of Kansas, priority 2013, dated 2018)
